Test results: ChEMBL document CHEMBL1201862, “PubChem BioAssay data set” (2004)
Activity calls are given as the source filed them.

Assays:
Assay type in all cases: functional
[1] = target: T1, cGMP-dependent protein kinase 1 (Homo sapiens, UniProt Q13976);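 further: value from a kinome panel screen with PRKG1 as the panel member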
T1 sequence (Q13976 whole entry): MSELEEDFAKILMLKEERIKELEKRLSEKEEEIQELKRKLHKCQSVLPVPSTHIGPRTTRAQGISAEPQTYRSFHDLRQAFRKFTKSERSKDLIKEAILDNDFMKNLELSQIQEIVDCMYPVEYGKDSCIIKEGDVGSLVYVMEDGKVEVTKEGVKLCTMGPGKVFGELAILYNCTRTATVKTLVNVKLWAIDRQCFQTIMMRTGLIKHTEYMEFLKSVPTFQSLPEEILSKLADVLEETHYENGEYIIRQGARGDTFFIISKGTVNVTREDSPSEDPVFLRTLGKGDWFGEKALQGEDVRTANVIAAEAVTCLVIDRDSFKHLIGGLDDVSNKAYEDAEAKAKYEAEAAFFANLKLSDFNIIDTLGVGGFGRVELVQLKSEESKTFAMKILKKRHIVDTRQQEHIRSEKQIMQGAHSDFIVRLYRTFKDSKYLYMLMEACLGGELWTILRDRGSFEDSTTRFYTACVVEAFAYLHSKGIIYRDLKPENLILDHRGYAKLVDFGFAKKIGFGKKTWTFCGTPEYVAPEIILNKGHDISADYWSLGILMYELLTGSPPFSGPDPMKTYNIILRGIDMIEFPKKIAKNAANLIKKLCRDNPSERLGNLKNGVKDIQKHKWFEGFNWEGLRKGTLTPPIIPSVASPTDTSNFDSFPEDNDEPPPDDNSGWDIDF

[2] = target: Activin receptor type-1 (Homo sapiens, UniProt Q04771); assay: Navigating the Kinome. Panel member name: ACVR1
[3] = target: Serine/threonine-protein kinase pim-1 (Homo sapiens, UniProt P11309)
[4] = target: Cell division cycle 7-related protein kinase (Homo sapiens, UniProt O00311);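 further: value obtained from a kinome-wide kinase panel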
[5] = target: Activated CDC42 kinase 1 (Homo sapiens, UniProt Q07912); assay: Navigating the Kinome. Panel member name: ACK1
[6] = target: G protein-coupled receptor kinase 5 (Homo sapiens, UniProt P34947); assay: Navigating the Kinome. Panel member name: GPRK5
[7] = target: Protein kinase C iota type (Homo sapiens, UniProt P41743);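 further: measured within a kinome-wide kinase panel, PRKCI as panel member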
[8] = target: Leucine-rich repeat serine/threonine-protein kinase 2 (Homo sapiens, UniProt Q5S007);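 further: value from a broad kinome-wide panel profiling study in which LRRK2 was one of the kinases tested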
[9] = target: RAC-alpha serine/threonine-protein kinase (Homo sapiens, UniProt P31749);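 further: AKT1 affinity measured as one member of a kinome-wide kinase profiling panel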
[10] = target: Rho-associated protein kinase 1 (Homo sapiens, UniProt Q13464);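 further: measured within a broad kinome-wide panel profiling many kinases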
[11] = target: Cyclin-dependent kinase 8 (Homo sapiens, UniProt P49336); assay: Navigating the Kinome. Panel member name: CDK8
[12] = target: Cyclin-dependent kinase 7 (Homo sapiens, UniProt P50613);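 further: value comes from a kinome-wide kinase profiling panel in which CDK7 is one member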
[13] = target: Dual specificity protein kinase CLK4 (Homo sapiens, UniProt Q9HAZ1)
[14] = target: Mitogen-activated protein kinase kinase kinase kinase 4 (Homo sapiens, UniProt O95819)
[15] = target: T2, Serine/threonine-protein kinase BRSK1 (Homo sapiens, UniProt Q8TDC3);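 further: measured within a kinome-wide kinase panel, with the target listed as KIAA1811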
T2 sequence (Q8TDC3 whole entry): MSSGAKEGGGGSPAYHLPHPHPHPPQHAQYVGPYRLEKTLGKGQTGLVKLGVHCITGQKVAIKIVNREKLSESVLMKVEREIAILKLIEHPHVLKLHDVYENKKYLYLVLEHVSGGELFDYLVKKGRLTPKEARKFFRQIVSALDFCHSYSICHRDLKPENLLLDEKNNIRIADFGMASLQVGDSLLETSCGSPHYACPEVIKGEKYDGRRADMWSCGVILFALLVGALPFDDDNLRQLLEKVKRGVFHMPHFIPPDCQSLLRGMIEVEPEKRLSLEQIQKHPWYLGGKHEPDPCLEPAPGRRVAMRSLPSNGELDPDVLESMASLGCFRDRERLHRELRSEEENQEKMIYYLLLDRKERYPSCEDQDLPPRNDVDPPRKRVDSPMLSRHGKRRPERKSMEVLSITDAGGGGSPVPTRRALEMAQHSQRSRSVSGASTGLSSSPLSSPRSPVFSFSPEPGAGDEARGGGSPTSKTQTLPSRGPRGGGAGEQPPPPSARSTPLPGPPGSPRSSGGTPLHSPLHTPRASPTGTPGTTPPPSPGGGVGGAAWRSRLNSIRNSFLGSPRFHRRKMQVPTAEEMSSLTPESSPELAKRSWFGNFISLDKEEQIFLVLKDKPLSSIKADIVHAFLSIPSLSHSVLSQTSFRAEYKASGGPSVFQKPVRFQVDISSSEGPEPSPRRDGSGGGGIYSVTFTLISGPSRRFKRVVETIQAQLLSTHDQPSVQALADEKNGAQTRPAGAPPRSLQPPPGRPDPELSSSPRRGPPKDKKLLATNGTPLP

[16] = target: Inhibitor of nuclear factor kappa-B kinase subunit epsilon (Homo sapiens, UniProt Q14164); assay: Navigating the Kinome. Panel member name: IKBKE
[17] = target: Leukocyte tyrosine kinase receptor (Homo sapiens, UniProt P29376); assay: Navigating the Kinome. Panel member name: LTK
[18] = target: Tyrosine-protein kinase Lck (Homo sapiens, UniProt P06239);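 further: lck was assayed as one member of a kinase panel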
[19] = target: Tyrosine-protein kinase Lyn (Homo sapiens, UniProt P07948);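 further: lyn as one member of a kinase panel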
[20] = target: LIM domain kinase 1 (Homo sapiens, UniProt P53667); assay: Navigating the Kinome. Panel member name: LIMK1
[21] = target: Insulin receptor (Homo sapiens, UniProt P06213);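 further: insulin receptor kinase tested as one member of a kinome-wide kinase panel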
[22] = target: Vascular endothelial growth factor receptor 3 (Homo sapiens, UniProt P35916);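 further: value from a kinome-wide profiling panel, with FLT4 as the panel member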
[23] = target: Inhibitor of nuclear factor kappa-B kinase subunit beta (Homo sapiens, UniProt O14920)
[24] = target: Tyrosine-protein kinase receptor UFO (Homo sapiens, UniProt P30530)

Chain of Cell division cycle 7-related protein kinase (O00311 whole entry): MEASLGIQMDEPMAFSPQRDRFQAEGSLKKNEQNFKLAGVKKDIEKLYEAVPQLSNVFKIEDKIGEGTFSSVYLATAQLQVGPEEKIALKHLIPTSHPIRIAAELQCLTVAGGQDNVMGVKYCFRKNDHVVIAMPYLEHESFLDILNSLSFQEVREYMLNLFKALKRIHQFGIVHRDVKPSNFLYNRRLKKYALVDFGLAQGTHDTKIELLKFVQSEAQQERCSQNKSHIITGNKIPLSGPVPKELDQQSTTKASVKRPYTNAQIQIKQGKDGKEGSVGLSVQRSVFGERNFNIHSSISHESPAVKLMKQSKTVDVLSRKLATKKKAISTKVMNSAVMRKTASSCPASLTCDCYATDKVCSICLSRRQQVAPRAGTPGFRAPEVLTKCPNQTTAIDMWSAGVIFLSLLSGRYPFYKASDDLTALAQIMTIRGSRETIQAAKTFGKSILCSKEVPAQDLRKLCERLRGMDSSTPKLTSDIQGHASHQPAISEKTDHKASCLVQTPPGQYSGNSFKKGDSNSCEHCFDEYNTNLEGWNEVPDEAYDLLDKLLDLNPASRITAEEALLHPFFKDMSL
Chain of Rho-associated protein kinase 1 (Q13464 whole entry): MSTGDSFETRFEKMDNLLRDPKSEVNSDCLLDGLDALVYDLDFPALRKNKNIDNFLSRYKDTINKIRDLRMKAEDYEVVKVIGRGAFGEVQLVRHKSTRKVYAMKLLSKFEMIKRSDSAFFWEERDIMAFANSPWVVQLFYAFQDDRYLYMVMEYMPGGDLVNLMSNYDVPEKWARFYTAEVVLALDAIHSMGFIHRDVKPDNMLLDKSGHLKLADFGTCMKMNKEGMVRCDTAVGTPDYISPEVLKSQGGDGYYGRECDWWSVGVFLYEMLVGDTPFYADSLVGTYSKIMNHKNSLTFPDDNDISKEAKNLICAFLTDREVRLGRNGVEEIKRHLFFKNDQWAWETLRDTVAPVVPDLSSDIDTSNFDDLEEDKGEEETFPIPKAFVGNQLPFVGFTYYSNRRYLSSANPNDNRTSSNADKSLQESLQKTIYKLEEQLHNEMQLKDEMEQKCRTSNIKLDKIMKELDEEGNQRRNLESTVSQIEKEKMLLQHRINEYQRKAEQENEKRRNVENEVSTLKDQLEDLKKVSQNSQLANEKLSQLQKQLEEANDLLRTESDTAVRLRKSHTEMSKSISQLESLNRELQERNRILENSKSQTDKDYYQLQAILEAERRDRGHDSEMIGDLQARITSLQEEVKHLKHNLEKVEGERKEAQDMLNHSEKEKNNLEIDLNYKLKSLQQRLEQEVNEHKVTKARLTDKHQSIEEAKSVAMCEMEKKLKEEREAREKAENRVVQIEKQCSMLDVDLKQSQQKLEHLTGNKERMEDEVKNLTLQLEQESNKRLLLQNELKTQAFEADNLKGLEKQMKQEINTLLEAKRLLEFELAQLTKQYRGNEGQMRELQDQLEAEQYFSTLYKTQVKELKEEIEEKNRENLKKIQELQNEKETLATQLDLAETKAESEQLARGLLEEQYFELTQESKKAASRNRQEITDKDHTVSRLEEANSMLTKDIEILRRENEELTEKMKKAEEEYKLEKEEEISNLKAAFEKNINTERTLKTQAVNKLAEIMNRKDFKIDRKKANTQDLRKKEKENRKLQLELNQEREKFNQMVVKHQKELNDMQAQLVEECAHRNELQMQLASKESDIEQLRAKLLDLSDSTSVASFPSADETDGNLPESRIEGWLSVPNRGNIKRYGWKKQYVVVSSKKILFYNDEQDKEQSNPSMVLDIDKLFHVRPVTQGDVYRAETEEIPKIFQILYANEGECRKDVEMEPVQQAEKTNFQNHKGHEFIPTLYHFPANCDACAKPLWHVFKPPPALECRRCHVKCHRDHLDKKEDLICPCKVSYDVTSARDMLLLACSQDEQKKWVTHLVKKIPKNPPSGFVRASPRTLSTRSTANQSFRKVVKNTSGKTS
Chain of Cyclin-dependent kinase 7 (P50613 whole entry): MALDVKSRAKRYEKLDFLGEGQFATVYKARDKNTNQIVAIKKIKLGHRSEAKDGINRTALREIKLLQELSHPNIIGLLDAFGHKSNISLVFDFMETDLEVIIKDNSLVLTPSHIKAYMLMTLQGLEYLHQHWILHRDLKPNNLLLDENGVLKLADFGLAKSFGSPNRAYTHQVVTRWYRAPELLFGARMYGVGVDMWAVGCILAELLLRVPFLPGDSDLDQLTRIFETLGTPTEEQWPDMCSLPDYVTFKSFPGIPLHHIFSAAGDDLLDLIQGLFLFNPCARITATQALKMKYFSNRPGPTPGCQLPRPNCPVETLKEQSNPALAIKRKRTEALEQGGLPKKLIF
Chain of Serine/threonine-protein kinase pim-1 (P11309 whole entry): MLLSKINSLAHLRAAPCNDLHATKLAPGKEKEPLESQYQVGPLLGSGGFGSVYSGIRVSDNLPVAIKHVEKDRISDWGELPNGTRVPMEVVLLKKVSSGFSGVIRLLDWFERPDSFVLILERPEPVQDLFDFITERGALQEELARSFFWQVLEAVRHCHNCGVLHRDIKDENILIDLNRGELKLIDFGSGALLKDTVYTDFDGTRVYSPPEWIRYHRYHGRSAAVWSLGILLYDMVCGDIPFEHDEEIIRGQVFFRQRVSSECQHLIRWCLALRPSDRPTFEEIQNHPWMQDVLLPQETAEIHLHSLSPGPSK
Chain of Protein kinase C iota type (P41743 whole entry): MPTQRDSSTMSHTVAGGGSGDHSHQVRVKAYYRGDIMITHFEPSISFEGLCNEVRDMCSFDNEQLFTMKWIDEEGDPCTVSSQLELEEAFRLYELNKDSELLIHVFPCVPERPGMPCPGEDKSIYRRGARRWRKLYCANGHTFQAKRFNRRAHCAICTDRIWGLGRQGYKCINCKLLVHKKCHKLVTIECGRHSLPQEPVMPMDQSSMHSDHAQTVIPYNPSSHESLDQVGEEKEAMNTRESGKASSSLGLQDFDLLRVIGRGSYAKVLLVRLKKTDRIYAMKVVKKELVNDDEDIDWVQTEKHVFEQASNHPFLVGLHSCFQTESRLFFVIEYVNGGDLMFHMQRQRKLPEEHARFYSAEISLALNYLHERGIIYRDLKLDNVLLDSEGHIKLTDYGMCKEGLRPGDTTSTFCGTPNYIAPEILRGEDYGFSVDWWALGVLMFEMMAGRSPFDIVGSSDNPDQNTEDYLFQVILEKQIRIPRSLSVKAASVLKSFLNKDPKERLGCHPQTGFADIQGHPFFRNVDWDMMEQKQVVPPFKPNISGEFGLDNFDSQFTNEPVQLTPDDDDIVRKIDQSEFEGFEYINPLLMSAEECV
Chain of G protein-coupled receptor kinase 5 (P34947 whole entry): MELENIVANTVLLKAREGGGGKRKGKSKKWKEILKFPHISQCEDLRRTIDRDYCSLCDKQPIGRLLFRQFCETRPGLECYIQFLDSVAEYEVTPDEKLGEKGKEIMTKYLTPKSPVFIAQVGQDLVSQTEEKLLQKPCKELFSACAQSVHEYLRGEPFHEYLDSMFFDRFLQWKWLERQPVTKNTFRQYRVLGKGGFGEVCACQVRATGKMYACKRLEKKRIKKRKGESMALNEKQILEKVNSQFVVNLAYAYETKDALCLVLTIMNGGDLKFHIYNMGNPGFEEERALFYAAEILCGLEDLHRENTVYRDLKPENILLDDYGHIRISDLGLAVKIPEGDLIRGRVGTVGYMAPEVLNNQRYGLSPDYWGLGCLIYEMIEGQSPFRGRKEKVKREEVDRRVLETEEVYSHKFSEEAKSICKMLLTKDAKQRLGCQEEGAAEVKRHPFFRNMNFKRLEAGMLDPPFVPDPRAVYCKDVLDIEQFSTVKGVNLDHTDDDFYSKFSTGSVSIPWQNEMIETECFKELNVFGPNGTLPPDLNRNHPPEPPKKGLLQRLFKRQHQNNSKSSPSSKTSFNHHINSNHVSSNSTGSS
Chain of RAC-alpha serine/threonine-protein kinase (P31749 whole entry): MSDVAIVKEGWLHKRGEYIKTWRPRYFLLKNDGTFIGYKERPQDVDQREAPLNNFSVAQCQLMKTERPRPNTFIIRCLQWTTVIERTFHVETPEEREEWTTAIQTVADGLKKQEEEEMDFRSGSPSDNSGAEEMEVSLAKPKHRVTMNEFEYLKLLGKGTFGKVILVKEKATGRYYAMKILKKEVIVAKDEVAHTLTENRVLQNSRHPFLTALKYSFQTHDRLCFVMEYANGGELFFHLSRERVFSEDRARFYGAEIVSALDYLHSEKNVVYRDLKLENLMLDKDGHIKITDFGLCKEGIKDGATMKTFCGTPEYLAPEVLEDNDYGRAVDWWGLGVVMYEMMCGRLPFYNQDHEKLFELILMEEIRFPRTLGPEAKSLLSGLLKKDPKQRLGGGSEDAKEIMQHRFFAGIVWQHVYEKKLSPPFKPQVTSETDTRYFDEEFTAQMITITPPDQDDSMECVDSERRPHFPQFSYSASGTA
Chain of Cyclin-dependent kinase 8 (P49336 whole entry): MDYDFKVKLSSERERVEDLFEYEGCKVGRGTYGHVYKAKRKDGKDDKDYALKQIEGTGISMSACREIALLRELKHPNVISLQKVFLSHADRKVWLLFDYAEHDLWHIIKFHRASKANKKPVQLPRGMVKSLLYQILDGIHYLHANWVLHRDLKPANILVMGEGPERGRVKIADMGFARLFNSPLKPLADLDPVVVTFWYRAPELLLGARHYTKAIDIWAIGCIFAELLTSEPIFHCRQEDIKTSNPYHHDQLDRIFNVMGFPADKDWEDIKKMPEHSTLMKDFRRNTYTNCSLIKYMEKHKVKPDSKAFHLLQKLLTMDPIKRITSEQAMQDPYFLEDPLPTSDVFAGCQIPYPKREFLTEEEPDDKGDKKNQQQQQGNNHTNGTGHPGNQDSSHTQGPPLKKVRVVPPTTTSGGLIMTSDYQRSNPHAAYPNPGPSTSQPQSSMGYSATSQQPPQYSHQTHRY

NC(=O)c1cc(-c2ccnc(N)n2)[nH]c1-c1ccc(Cl)cc1Cl
Ki [1]: 794 nM (active) | pKi [1]: 6.1 | Ki [2]: 2 µM (active) | pKi [2]: 5.7 | Ki [3]: 1.58 µM (active) | pKi [3]: 5.8 | Ki [4]: 0.2 nM (active) | pKi [4]: 9.7 | Ki [5]: 1.26 µM (active) | pKi [5]: 5.9 | Ki [6]: 2.51 µM (active) | pKi [6]: 5.6 | Ki [7]: 794 nM (active) | pKi [7]: 6.1 | Ki [8]: 316 nM (active) | pKi [8]: 6.5 | Ki [9]: 7.94 µM (active) | pKi [9]: 5.1 | Ki [10]: 126 nM (active) | pKi [10]: 6.9 | Ki [11]: 15.8 nM (active) | pKi [11]: 7.8 | Ki [12]: 158 nM (active) | pKi [12]: 6.8 | Ki [13]: 0.631 nM (active) | pKi [13]: 9.2 | Ki [14]: 1.58 µM (active) | pKi [14]: 5.8 | Ki [15]: 6.31 µM (active) | pKi [15]: 5.2 | Ki [16]: > 3.16 µM (inactive) | Ki [17]: > 2.51 µM (inactive)

NC(COc1cncc(-c2ccc3c(c2)C(=Cc2ccco2)C(=O)N3)c1)Cc1c[nH]c2ccccc12 (stereo not drawn)
Ki [1]: 1.26 nM (active) | Ki [18]: 398 nM (active) | Ki [4]: 251 nM (active) | Ki [19]: 316 nM (active) | Ki [20]: 794 nM (active) | Ki [21]: > 5.01 µM (inactive) | Ki [22]: 25.1 nM (active) | Ki [10]: 31.6 nM (active) | Ki [15]: 0.158 µM (active) | Ki [23]: 1.26 µM (active) | Ki [24]: 10 nM (active)
